Experiments:
Type in all cases: physicochemical
[1] = Sebum oxidation products by GC/MS after exposure in pollution test chamber (dry film method); settings: for change of sebum component in GC/MS chromatogram: upon UVA exposure
Procedure: (§1) A) Stock solutions and preparation: • Stock solution squalene: 1 g of squalene was dissolved in 100 ml ethanol solvent • Stock solution sebum: 1 g of synthetic sebum (e.g. Synthetic Sebum 09D, available from WFK Testgewebe GmbH) was dissolved in 100 ml ethanol solvent using a water bath 15 minutes under 40° C. heat 1 ml of the respective stock solution was added at the center of large petri dishes (100 mm diameter×17 mm height) using an automatic pipette. After evaporating the ethanol solvent in a high ventilated fume hood for 10 mins, the petri dishes were coated with one uniform layer of squalene, respectively sebum, evenly distributed at the bottom of the petri dish. In total 16 samples were prepared, 8 of each respective batch, meaning 8 with squalene coating (batch 1) and 8 with sebum coating (batch 2). The side walls of the test petri dish samples were wrapped with plastic band seals in order to get them vertically hooked in a position facing the UVA lamps located on sides in the pollution test chamber. Four coated petri dishes, two with squalene and two with sebum, were stored in a fridge at 4° C. for control purposes, due to the autoxidation of squalene.
(§2) For each batch, 2 samples (in total 4 samples per mode) were respectively exposed to the 3 different pollution modes (i to iii): • i. During the “UVA only” (“uv”) mode, the samples were exposed to continuous 340 nm UV irradiation of the 8 UVA lamps for 6 hours. • ii. […]
(§3) 3.3.1 Squalene and Sebum oxidation products quantification with GC/MS • Equipment: Agilent 7890B/5977A GC-MS system • Dissolution solvent: Ethanol • column: DB-1MS • Flow Rate: 2 ml/min • Column Temperature: 40° C. […] Malondialdehyde (MDA) Quantification with Spectrophotometer (MDA-TBA Detection) • UV-vis scan between 200 and 800 nm, • Colorimetry: UV detection for MDA-TBA complex at 532 nm • Standard curve preparation: As precursor of MDA, 1,1,3,3-tetraethoxypropane (TEP) was used. […]

[2] = MDA quantification/TBA test for squalene samples after pollution exposure
Procedure: as §1, §2, §3

[3] = Squalene oxidation products by GC/MS after exposure in pollution test chamber (dry film method); settings: solvent ethanol
Procedure: as §1, §2, §3

change of sebum component in GC/MS chromatogram [1]	MDA percentage of initial mole of squalene ([2]; UVA irradiation only (uv mode))	MDA percentage of initial mole of squalene ([2]; combined exhaust gas and UV irradiation (puv mode))	MDA percentage of initial mole of squalene ([2]; exhaust gas only (p mode))	decrease of squalene from sebum (GC/MS) ([1]; 2 h UVA exposure and one-time 30 min exhaust gas, solvent Ethanol)	squalene oxidization products (GC/MS) ([3]; UVA irradiation only (UV-Mode), UVA for 6 h)	squalene oxidization products (GC/MS) ([3]; exhaust gas only (p-Mode), 3x30 mins diesel engine exhaust gas)	SMILES	squalene oxidization products (GC/MS) ([3]; UVA and exhaust gas (PUV-Mode), UVA 6 h, 3x30 mins diesel engine exhaust gas)
increase							CCCCCCCCCCCCCCCC(=O)O [palmitic acid]	
	14.0%	13.6%	13.5%	93%	highest content of oxidation products	squalene isomers (SQ isomers)	CC(C)=CCC/C(C)=C/CC/C(C)=C/CC/C=C(\C)CC/C=C(\C)CCC=C(C)C [squalene]	a mix of pollution-induced squalene isomers (SQ isomers) as well as irradiation-induced oxidation products (SQOPs)
increase							CC(C)CCC[C@@H](C)[C@H]1CC[C@H]2[C@@H]3CC=C4C[C@@H](O)CC[C@]4(C)[C@H]3CC[C@]12C [cholesterol]	

Reference: patent publication US20240042424A1, “CITY POLLUTION ENVIRONMENT SIMULATION APPARATUS” (BASF SE, priority 2017, published 2024)
